Experimental findings from US12516056B2, “Compounds for inhibition of janus kinase 1” (MANKIND PHARMA LTD., priority 2019, dated 2026) are described below.

The target in one test is T1, Recombinant JAK3 (Homo sapiens, UniProt P52333).
T1 construct: purchased Carna Biosciences
T1 sequence (P52333 1-1124): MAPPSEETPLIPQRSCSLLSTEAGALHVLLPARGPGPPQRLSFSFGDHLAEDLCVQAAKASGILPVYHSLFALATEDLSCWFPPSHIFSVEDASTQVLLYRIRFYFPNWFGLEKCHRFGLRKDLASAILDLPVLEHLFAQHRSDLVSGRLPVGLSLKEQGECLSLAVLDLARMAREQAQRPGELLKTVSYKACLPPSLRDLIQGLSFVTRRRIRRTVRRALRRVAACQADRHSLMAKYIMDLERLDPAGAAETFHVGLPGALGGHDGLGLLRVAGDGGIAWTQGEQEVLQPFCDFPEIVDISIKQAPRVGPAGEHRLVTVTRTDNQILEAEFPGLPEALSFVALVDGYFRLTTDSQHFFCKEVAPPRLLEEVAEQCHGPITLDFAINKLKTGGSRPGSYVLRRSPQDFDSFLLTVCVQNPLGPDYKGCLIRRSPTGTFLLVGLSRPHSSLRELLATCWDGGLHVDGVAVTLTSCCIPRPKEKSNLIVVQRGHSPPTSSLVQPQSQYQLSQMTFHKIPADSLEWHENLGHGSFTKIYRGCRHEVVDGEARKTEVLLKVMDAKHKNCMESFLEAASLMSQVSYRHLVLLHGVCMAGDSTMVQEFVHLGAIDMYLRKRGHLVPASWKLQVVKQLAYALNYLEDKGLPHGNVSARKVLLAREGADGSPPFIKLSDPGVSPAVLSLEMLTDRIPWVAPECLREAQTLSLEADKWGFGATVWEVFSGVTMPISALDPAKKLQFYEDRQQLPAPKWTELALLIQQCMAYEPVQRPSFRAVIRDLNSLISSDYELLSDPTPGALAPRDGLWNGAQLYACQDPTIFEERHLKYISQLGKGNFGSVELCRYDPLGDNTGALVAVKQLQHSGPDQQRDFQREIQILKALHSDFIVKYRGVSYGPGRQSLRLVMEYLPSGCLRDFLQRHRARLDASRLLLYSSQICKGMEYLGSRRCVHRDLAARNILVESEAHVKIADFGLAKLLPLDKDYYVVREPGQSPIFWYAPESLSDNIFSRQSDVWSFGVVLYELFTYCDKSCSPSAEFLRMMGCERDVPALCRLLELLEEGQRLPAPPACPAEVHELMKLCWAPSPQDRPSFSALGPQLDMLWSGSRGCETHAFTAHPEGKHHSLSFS
The test is described as follows: JAK biochemical assay (LANCE Ultra TR-FRET), JAK3. A digest of the protocol: (§1)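 TR-FRET read-out of ULight substrate phosphorylation by recombinant kinase gives % inhibition relative to vehicle. The assay buffer is HEPES pH 7.5 with EGTA, MgCl2, DTT and Tween-20.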

For a further test, the target named is T2, Recombinant JAK2 (Homo sapiens, UniProt O60674).
T2 construct: purchased Carna Biosciences
T2 sequence (O60674 whole entry): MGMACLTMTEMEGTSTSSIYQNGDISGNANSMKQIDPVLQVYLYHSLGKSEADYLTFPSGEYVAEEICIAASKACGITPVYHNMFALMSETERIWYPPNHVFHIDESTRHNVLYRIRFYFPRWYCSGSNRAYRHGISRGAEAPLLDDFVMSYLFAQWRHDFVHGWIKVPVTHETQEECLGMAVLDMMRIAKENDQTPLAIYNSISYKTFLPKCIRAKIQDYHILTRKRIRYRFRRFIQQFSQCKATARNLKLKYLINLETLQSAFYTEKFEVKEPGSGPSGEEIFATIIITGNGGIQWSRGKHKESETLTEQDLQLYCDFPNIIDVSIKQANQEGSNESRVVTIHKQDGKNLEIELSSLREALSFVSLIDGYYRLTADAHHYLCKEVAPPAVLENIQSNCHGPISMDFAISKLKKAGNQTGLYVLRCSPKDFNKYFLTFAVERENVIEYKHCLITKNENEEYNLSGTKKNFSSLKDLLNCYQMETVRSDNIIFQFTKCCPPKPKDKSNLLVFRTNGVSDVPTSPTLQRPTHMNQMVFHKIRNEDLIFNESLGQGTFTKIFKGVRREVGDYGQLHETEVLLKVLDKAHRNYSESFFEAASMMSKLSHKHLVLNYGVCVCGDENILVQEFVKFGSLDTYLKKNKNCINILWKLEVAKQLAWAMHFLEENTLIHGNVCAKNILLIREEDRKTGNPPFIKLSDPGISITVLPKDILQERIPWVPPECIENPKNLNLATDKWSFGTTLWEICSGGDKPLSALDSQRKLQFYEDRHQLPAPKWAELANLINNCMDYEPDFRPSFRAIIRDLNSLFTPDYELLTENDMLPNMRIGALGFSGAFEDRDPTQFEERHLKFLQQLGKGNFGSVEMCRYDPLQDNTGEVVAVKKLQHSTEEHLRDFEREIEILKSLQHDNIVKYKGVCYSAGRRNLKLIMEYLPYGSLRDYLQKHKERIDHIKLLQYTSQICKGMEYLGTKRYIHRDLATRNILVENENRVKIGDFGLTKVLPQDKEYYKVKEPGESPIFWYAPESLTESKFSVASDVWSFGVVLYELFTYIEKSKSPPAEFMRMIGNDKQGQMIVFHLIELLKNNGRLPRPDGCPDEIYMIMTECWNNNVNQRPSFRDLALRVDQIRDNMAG
In words: JAK biochemical assay (LANCE Ultra TR-FRET), JAK2. Summed up:
as §1
In general terms: TR-FRET usually uses a lanthanide donor and a delayed reading to cut background.

Test [1] deals with oxazolone induced colitis. The test is described as follows: Murine model of oxazolone induced colitis. The class given is in vivo, Male BALB/c mice. The note with it: 30 mpk, PO, BID.
Test [2] relates to collagen induced mouse arthritis model. The test is described as follows: Mouse model of rheumatoid arthritis (collagen induced arthritis). The class given is in vivo. The note with it: orally dosed, QD for 21 days; reference filgotinib. An excerpt:
Rheumatoid arthritis (RA) is an autoimmune disease that can cause joint pain and damage throughout the body. Several cytokines such as IL-6 and IFN-γ activate the Janus kinase/signal transducers and activators of transcription (JAK/STAT) pathway. Inhibition of JAK/STAT pathway is considered as one of the therapeutic options for treatment of rheumatoid arthritis. Rodent models of arthritis can be used to evaluate the therapeutic potential of compounds dosed preventatively or therapeutically. These models include but are not limited to mouse or rat collagen-induced arthritis, rat adjuvant-induced arthritis, and collagen antibody-induced arthritis.
Compounds described herein are tested for JAK/STAT pathway inhibition driven efficacy in collagen induced mouse arthritis model. Compounds were orally dosed, QD for 21 days and at the end of the study, clinical symptoms, body weight and histopathology of ankle and paws were measured. Arthritis score was calculated for the compounds as well as reference standard, filgotinib.

Test [3] has as its system STAT3 phosphorylation by IL-6 in TF-1 cells. In words: JAK cellular assay: STAT3 phosphorylation by IL-6 in TF-1 cells (HTRF). In kind it is cell-based. The note with it: Homo sapiens, TF-1, TF-1 cells. Summed up:
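TF-1 cells starved overnight in low-serum OptiMEM, then 120,000/well in RPMI, preincubated with compound 30 min at 37 °C (0.2% DMSO final). Stimulation 20 min with IL-6 30 ng/ml (pSTAT3) or GMCSF 5 ng/ml (pSTAT5); lysate phospho-STAT by HTRF, unstimulated background subtracted.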

In the next test the target is T3, Recombinant TYK2 (Homo sapiens, UniProt P29597).
T3 construct: purchased Carna Biosciences
T3 sequence (P29597 whole entry): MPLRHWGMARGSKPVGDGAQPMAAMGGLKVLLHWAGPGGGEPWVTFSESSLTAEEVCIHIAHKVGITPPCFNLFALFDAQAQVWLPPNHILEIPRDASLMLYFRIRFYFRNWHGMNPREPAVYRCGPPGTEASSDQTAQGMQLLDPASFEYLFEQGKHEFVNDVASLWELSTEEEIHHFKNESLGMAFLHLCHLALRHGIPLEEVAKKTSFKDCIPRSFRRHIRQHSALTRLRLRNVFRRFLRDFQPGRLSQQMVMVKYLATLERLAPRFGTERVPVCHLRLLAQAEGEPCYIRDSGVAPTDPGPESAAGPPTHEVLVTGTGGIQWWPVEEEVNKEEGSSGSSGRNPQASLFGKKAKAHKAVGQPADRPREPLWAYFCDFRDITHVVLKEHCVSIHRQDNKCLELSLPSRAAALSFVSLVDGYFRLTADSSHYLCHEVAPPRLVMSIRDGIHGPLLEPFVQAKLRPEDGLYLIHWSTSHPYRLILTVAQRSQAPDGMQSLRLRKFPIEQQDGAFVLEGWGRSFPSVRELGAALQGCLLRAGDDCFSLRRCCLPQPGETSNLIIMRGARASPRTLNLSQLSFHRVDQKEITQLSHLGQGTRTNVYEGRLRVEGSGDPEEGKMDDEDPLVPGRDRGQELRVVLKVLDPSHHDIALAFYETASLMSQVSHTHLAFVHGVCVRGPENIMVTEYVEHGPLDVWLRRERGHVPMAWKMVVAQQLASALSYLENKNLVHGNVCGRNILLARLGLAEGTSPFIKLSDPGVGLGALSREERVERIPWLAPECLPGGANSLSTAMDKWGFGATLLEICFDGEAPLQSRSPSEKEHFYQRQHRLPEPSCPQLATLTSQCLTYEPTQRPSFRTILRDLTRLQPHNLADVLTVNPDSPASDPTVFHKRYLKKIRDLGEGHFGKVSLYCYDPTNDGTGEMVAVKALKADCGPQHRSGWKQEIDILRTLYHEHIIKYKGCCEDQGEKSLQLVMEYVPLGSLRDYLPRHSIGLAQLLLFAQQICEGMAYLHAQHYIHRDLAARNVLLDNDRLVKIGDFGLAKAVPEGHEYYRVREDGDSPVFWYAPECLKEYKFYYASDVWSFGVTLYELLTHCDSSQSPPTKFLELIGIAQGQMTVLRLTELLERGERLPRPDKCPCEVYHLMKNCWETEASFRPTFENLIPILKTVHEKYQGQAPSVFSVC
In words: JAK biochemical assay (LANCE Ultra TR-FRET), TYK2. A digest of the protocol: as §1

Setting [4] is: read-out: Biochemical IC50 (nM) JAK3.
Where [5] appears, read: read-out: Biochemical IC50 (nM) JAK2.
Where [6] appears, read: IL-6 30 ng/ml, pSTAT3 HTRF, read-out: Cell Based Assay (μM) TF-1/IL-6/pSTAT3.
Where [7] appears, read: IL-6 stimulation, read-out: Cell based IC50 (μM) TF-1/IL-6.
The mark [8] stands for this setting: read-out: Biochemical IC50 (nM) TYK2.
Setting [9] is: recombinant TYK2, TR-FRET, read-out: Biochemical Assay (μM) TYK2.

Like-named read-outs stand apart in the source and are kept apart here.

For `CC(C)NC(=O)CC[C@@H](c1ccc(-n2cc(-c3ccnc4[nH]cnc34)cn2)nc1)C(F)(F)F` [Example 1215, (S)-4-(6-(4-(3H-imidazo[4,5-b]pyridin-7-yl)-1H-pyrazol-1-yl)pyridin-3-yl)-5,5,5-trifluoro-N-isopropylpentanamide], the IC50 at Recombinant JAK3 (setting [4]) was 11 nM; at Recombinant JAK3 (recombinant JAK3, TR-FRET, read-out: Biochemical Assay (μM) JAK3), less than 100 nM; on Recombinant JAK2 (setting [5]), 40 nM; at Recombinant JAK2 (recombinant JAK2, TR-FRET, read-out: Biochemical Assay (μM) JAK2), less than 100 nM; in test [3] (setting [6]), 0.32 µM; in test [3] (setting [7]) it was 0.3 µM. Moreover, the IC50 on Recombinant TYK2 (setting [8]) was more than 100 nM; on Recombinant TYK2 (setting [9]), more than 1000 nM. Also, the “efficacy in comparison to Filgotinib (colitis model)” value in test [1] is on record as “better efficacy”. For the same compound, in test [2], the “efficacy (arthritis score) in collagen induced mouse arthritis model” value was “very good efficacy”.

As to `CN1CCC(C(O)(c2ccc(-n3cc(-c4ccnc5[nH]cnc45)cn3)nc2)C(F)(F)F)CC1` (centres unmarked) [Example 1133, 1-(6-(4-(3H-imidazo[4,5-b]pyridin-7-yl)-1H-pyrazol-1-yl)pyridin-3-yl)-2,2,2-trifluoro-1-(1-methylpiperidin-4-yl)ethanol], the IC50 is 100 nM at Recombinant JAK3 (setting [4]); 152 nM at Recombinant JAK2 (setting [5]); 0.6 µM in test [3] (setting [6]); 0.6 µM in test [3] (setting [7]); 850 nM at Recombinant TYK2 (setting [8]); more than 1000 nM at Recombinant TYK2 (setting [9]). Also, the “efficacy (arthritis score) in collagen induced mouse arthritis model” value in test [2] is given as “very good efficacy”.
